Experiments:
[1] = test system: KEAP1-mutant NSCLC cells; assay: Colony formation in soft agar, KEAP1-mutant NSCLC cells; assay type: cell-based, human; details: 5 μM
From the text: Based on its in situ activity (FIG. 6D and FIG. 12A, 12G) and selectivity (FIGS. 6A, 6B), BPK-29 was chosen for additional biological studies. […] Exogenous expression of […] the growth inhibition caused by BPK-29.

[2] = test system: CRY1, DEPDC1, and CPLX2 expression in KEAP1-mutant NSCLC cells (H460, H2122); assay: Gene expression changes (RNA sequencing, qPCR) in KEAP1-mutant NSCLC cells; assay type: cell-based, human; details: 12 h; for gene expression changes (CRY1, DEPDC1, CPLX2): KEAP1-mutant NSCLC cells
Description: FIG. 13A-FIG. 13E illustrate characterization of NR0B1 ligands in Keap1-mutant NSCLC cells. […] Top: Heat map depicting changes in gene expression between H460 cells expressing shNRF2, shNR0B1 or a control (shGFP) and those treated with vehicle (DMSO), BPK-29 or BPK-9 (30 μM, 12 h). Expression for each condition was first normalized to appropriate controls (shGFP or DMSO) and then normalized by row. Bottom: Overlap between gene sets regulated in BPK-29-treated vs shNR0B1 H460 cells. Gene set enrichment analysis (GSEA) was applied to all genes that were differentially expressed between shNR0B1-H460 cells and shGFP-H460 cells or between H460 cells treated with BPK-29 or DMSO. Genes were ranked based on their FDR. The FDR q-value was computed by GSEA on the C2.all collection and a cut off of FDR<0.05 was required for a gene set to be considered enriched. […] H460 (left) or H2009 (right) cells were treated with vehicle, BPK-29, or BPK-9 (25 μM, 12 h). Gene expression changes for CRY1, DEPDC1, and CPLX2 were determined by qPCR and data represents mean values+SD (n=4-10). […] Cells were treated with the vehicle, BPK-29, or BPK-9 (30 μM, 12 h). Gene expression changes for Cry1, DEPDC1, and CPLX2 were determined by qPCR and data represents mean values+SD (n=4-6). […] H460 cells were treated with vehicle or BPK-29 or BPK-9 at the indicated concentrations for 9 h. Protein expression was analyzed by immunoblotting. […] Top: H460 cells were treated with cycloheximide (100 μg/mL) for the indicated time points and NR0B1 protein content assessed by immunoblotting. […] NR0B1 protein content was determined following cycloheximide treatment and data were fit into a one-phase exponential decay model. […]
RNA was isolated by RNeasy Kit (Qiagen) and digested with DNase (Qiagen) from n=3 samples per condition (cells expressing shGFP, shNRF2_1, shNR0B1_1 or shSNW1_1 or treated with DMSO, 30 μM BPK-29 or 30 μM BPK-9). RNA integrity (RIN) numbers were determined using the Agilent TapeStation prior to library preparation. mRNA-seq libraries were prepared using the TruSeq RNA library preparation kit (version 2) according to the manufacturer's instructions (Illumina). Libraries were then quantified, pooled, and sequenced by single-end 50 base pairs using the Illumina HiSeq 2500 platform at the Salk Next-Generation Sequencing Core. […] Libraries were sequenced at an average depth of 15 million reads per sample.
The spliced read aligner STAR (Dobin et al., 2013) was used to align sequencing reads to the human hg19 genome. Gene-level read counts were obtained based on UCSC hg19 gene annotation. DESeq2 (Love et al., 2014) was used to calculate differential gene expression based on uniquely aligned reads, and p-values were adjusted for multiple hypothesis testing with the Benjamini-Hochberg method.

[3] = biological target: T1, interactions of FLAG-tagged RBM45 or SNW1 with endogenous NR0B1 (Homo sapiens, UniProt P51843); assay: NR0B1 protein interactions in compound-treated cells (FLAG immunoprecipitation, immunoblot); assay type: cell-based; details: for blockade of interactions of FLAG-tagged RBM45 or SNW1 with endogenous NR0B1: KEAP1-null HEK293T cells and KEAP1-mutant NSCLC cells; for blockade of interactions of FLAG-tagged RBM45 or SNW1 with endogenous NR0B1 / inhibition of NR0B1 interaction with FLAG-RBM45 or FLAG-SNW1: 3 h; for inhibition of NR0B1 interaction with FLAG-RBM45 or FLAG-SNW1: KEAP1-null HEK293T cells
T1 construct: endogenous in cells; host or cells: KEAP1-null HEK293T cells stably expressing FLAG-RBM45 or FLAG-SNW1
T1 sequence (P51843 1-470): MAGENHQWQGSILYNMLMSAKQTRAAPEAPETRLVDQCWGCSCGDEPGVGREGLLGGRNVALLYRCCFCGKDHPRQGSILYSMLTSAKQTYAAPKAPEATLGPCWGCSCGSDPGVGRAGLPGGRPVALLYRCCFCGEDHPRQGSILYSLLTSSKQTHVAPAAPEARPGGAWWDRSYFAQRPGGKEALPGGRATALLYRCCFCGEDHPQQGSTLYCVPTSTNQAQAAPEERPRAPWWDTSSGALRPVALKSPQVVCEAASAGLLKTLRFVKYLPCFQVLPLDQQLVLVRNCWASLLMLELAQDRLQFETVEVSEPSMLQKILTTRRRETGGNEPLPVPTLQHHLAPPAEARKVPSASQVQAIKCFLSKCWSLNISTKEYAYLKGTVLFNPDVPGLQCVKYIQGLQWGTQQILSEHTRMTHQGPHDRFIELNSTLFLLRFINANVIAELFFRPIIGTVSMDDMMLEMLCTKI
Description: Confluent 10 cm plates of indicated cell lines were rinsed once with warm PBS and incubated in serum/dye-free RPMI with indicated compounds or vehicle for 3 h at 37° C. Cells were washed once ice-cold PBS and snap frozen.
Cells were rinsed once with ice-cold PBS, and lysed by sonication in Triton IP buffer. Lysates were clarified by centrifugation at 16,000×g for 10 min. Samples were normalized to 1 mg ml^−1 and boiled following the addition of sample buffer. For FLAG- or HA-immunoprecipitations, FLAG or HA resins (30 μL, 50:50 slurry) were added to the pre-cleared lysates and incubated with rotation for 3 hours at 4° C. Following immunoprecipitation, the beads were washed once with IP buffer followed by 3 times with IP buffer containing 500 mM NaCl. Loading buffer (40 μL) was added to the immunoprecipitated proteins which were subsequently denatured by boiling. Proteins were resolved by SDS-PAGE, analyzed by immunoblotting and relative band intensities were quantified using ImageJ software.
Next it was asked whether BPK-26 and BPK-29 inhibited NR0B1 protein interactions in cells using two complementary systems. […] In both cell systems, BPK-26 and BPK-29, but not control compounds, blocked the interactions of FLAG-tagged RMB45 or SNW1 with endogenous NR0B1 (FIG. 6C and FIG. 12E-F).

blockade of interactions of FLAG-tagged RBM45 or SNW1 with endogenous NR0B1 [3]	inhibition of NR0B1 interaction with FLAG-RBM45 or FLAG-SNW1 [3]	relative potency for blockade of NR0B1-protein interactions ([3]; in cells)	Structure (SMILES)	colony formation in soft agar [1]	gene expression changes (CRY1, DEPDC1, CPLX2) ([2]; 30 μM)	expression of representative genes (CRY1, DEPDC1, CPLX2) by qPCR ([2]; KEAP1-mutant H460 cells, 25 μM)	expression of representative genes (Cry1, DEPDC1, CPLX2) by qPCR ([2]; KEAP1-mutant H2122 cells, 30 μM)
			O=C(c1ccc(N2CCOCC2)cc1)N1CCC(CN(C(=O)CCl)c2cncnc2)CC1 [BPK-9, 2-chloro-N-((1-(4-morpholinobenzoyl)piperidin-4-yl)methyl)-N-(pyrimidin-5-yl)acetamide]	much less of an effect	not observed		
blocked	inhibit		O=C(CCl)N(Cc1cccc(Cl)c1F)c1ccc(Cl)nc1 [BPK-26, 2-chloro-N-(3-chloro-2-fluorobenzyl)-N-(6-chloropyridin-3-yl)acetamide]				
blocked	inhibit	better potency than BPK-26	O=C(c1ccc(N2CCOCC2)cc1)N1CCCC(N(Cc2ccccc2)C(=O)CCl)CC1 (centres unmarked) [BPK-29, N-benzyl-2-chloro-N-(1-(4-morpholinobenzoyl)azepan-4-yl)acetamide]	blocked colony formation	reductions in CRY1, DEPDC1, and CPLX2	alters the expression	alters the expression
